Assay results from patent US20130165734A1, “TIME-DOMAIN TRANSDUCTION SIGNALS AND METHODS OF THEIR PRODUCTION AND USE” (Nativis, Inc., priority 2009, published 2013).

Assays:
tubulin [1] = test: in vitro tubulin polymerization (aggregation) assay, absorbance at 340 nm; format: biochemical; details: 4 μM taxol, tubulin 1.5 mg/ml in GPEM buffer, first ten minutes
Protocol: The M2(3) and a number of other high-score signals were tested for their ability to stabilize tubulin polymerization, employing the transduction system described above with reference to FIG. 7A. […] This assay has been described, for example, in Shelanski, M. L., Gaskin, F. and Cantor, C. R. (1973). Microtubule assembly in the absence of added nucleotides. Proc. Natl. Acad. Sci. U.S.A. 70, 765-768; and Lee, J. C. and Timasheff, S. N. (1977). In vitro reconstitution of calf brain microtubules: effects of solution variable. Biochemistry, 16, 1754-1762.
The M2(3) and a number of other high-score taxol signals were tested for their ability to stabilize tubulin polymerization. […] Change in optical absorption at 340 nm was measured continuously for each sample, and the OD340 data was used to calculate a rate of tubulin polymerization (dA/minute at 340 nm) at each one minute interval during the transduction study.
The results of the study, expressed as rate or tubulin polymerization over the first ten minutes of the study, are shown in FIGS. 9A and 9B.

tubulin [2] = test: electron microscopy of tubulin assay samples; format: biochemical; details: 10 minutes exposure to 4 μM taxol
Source text: The assay samples from above were examined by electron microscopy to confirm that the nature of the microtubule polymers formed in the assay, either by the addition of taxol or the taxol-derived time-domain signal. FIGS. 10A-10F are photo electron micrographs, taken at 21,000× and 52,000× magnification, of a tubulin suspension for untreated control (FIGS. 10A and 10B), cremaphore alone, FIGS. 10C, 10D), and the tubulin suspension exposed to the magnetic field of a white-noise signal. Each sample was allowed to incubate in the system cell for 10 minutes under the conditions described, then placed on ice and immediately after cooling, placed on an EM grid and fixed for with stain. No evidence of significant tubulin formation is observed in any of these samples.
FIGS. 12A-12D show the morphology of the tubulin assay samples after 10 minutes exposure to 4 μM taxol, where the samples were cooled after 10 minutes and prepared for EM as above.
FIGS. 13A-13D show the morphology of the tubulin assay samples after 10 minutes exposure to the above M2(3) taxol-derived time-domain signal. 4 μM taxol, where the samples were cooled after 10 minutes and prepared for EM as above.

U87 glioblastoma cells = test: intracranial U87 glioblastoma tumor study in mice; format: in vivo; details: tumor-bearing animals treated with taxol compound over the same 23 day period
[3] = observation of side effects in treated tumor-bearing animals; format: in vivo, mice; details: animals treated with taxol; preliminary observations
Source text: Another potential advantage of signal therapy over the conventional drug therapy is the potential for reduced side effects.

With `CC(=O)O[C@H]1C(=O)[C@@]2(C)[C@H]([C@H](OC(=O)c3ccccc3)[C@]3(O)C[C@H](OC(=O)[C@H](O)[C@@H](NC(=O)c4ccccc4)c4ccccc4)C(C)=C1C3(C)C)[C@]1(OC(C)=O)CO[C@@H]1C[C@@H]2O` [taxol, taxol (paclitaxel)] the “increase in absorbance (tubulin polymerization) over the tubulin control” value (tubulin [1]) was “increased more than twofold”, the “morphology of tubulin assay samples (EM)” value (tubulin [2]) was “A number of well-developed microtubular structures, including multi-lamellar structures are seen” and the “tumor volume result compared with signal treatment” value (U87 glioblastoma cells) was “A similar result was seen”. For the same compound, the “side effects (activity, behavior, appetite)” value [3] was “showed the expected signs of lethargy and loss of appetite”.
